Data on 13 compounds can be found in patent US20240101573A1, “MACROCYCLIC K-RAS G12C INHIBITOR, PREPARATION METHOD THEREFOR AND USE THEREOF” (Abbisko Therapeutics Co., Ltd., priority 2020, published 2024).

In one test the test system is H358. Kind of test: Anti-proliferation 2D CTG test (H358). The class given is cell-based. The note with it: H358 cells, 1500 cells/well, 5 days incubation with compound, CTG readout. The procedure:
(§1) When the cell confluency was 80%, the cells were isolated with 0.25% trypsin. The isolated cells were resuspended in 5 mL of fresh cell culture medium and centrifuged to collect the cells. The number of cells were counted at the same time. Then, the cells were suspended in a culture medium at a moderate concentration. The cells were placed into a 96-well plate with 1500 cells/well for H358 and 500 cells/well for MIAPACA-2. The 96-well plate was placed in an incubator at 37° C. and incubated overnight.
(§2) 2) Day 1: processing of compound
(§3) A 2 mM stock solution was serially diluted at 10 points at a ratio of 1:3. 5× culture medium containing the compound was transferred to the corresponding wells of 96 wells. The final peak concentration of the compound was […], and the final concentration of DMSO was 0.5%. The 96-well plate was placed in the incubator at 37° C. and incubated for 5 days.
(§4) 3) Baseline reading. 4) Day 6: reading of signals
(§5) A detection reagent (CTG) was added at 50 μL/well, and the signals were read in an Envision instrument.
(§6) The percentage of inhibition ([…]) at each compound concentration was calculated based on the signals from the HPE and ZPE control wells contained in each assay plate and the fluorescence signals from individual compound wells. The inhibition rate in the ZPE control wells containing the enzyme and substrate was 0%, and the inhibition rate in the HPE control wells only containing the substrate was […]. By testing the compound in terms of numeric concentration and inhibition percentage, the compound concentration required for […] inhibition (IC50) was determined using a four-parameter logarithmic dose-response equation. The endpoint value (IC50) of the reference compound was evaluated in each experiment as a quality control measure. If the endpoint value was within three times the expected value, the experiment was considered acceptable.

Another test concerns MIA PaCa-2. Kind of test: Anti-proliferation 2D CTG test (MIA PaCa-2). The class given is cell-based. The settings on record: MIAPACA-2 cells, 500 cells/well, 5 days incubation with compound, CTG readout. The procedure: as §1, §2, §3, §4, §5, §6
[1] abbreviates: Homo sapiens, MIA PaCa-2, 120 h.

Turning to `C=CC(=O)N1CCN(c2nc(=O)n3c4nc(c(F)cc24)-c2c(F)cccc2OCC(OCC)C(=O)c2ccnc(C(C)C)c2-3)[C@@H](C)C1` (stereo partly drawn) [Example 21, (R)-2^4-((S)-4-acryloyl-2-methylpiperazin-1-yl)-6-ethoxy-2^6,3^6-difluoro-1^2-isopropyl-2^1,2^2-dihydro-4-oxa-2(1,7)-pyrido[2,3-d]pyrimidina-1(3,4)-pyridina-3(1,2)-benzocycloheptane-22,7-dione], the half-inhibitory concentration (IC50) in the test on H358 (Homo sapiens, NCI-H358, 120 h) turned out to be 0.06 µM; with MIA PaCa-2 (setting [1]), 0.153 µM. In the case of `C=CC(=O)N1CCN(c2nc(=O)n3c4nc(c(F)cc24)-c2c(F)cccc2OCC(O)C(OCC)c2ccnc(C(C)C)c2-3)[C@@H](C)C1` (stereo partly drawn) [Example 28, 2^4-((S)-4-acryloyl-2-methylpiperazin-1-yl)-7-ethoxy-2^6,3^6-difluoro-6-hydroxy-1^2-isopropyl-2^1,2^2-dihydro-4-oxa-2(1,7)-pyrido[2,3-d]pyrimidina-1(3,4)-pyridina-3(1,2)-benzocycloheptane-2^2-one], the IC50 was 0.028 µM in the test on H358 and 0.027 µM in the test with MIA PaCa-2.

As to `C=CC(=O)N1CCN(c2nc(=O)n3c4nc(c(F)cc24)-c2c(F)cccc2OCC2OC(C)(C)OC2c2ccnc(C(C)C)c2-3)[C@@H](C)C1` (stereo partly drawn) [Example 63, 11-((S)-4-acryloyl-2-methylpiperazin-1-yl)-15,21-difluoro-7-isopropyl-2,2-dimethyl-3a,20a-dihydro-9H,20H-12,14-(eiethane[1,2]diylidene)benzo[b][1,3]dioxazolo[4,5-j]pyrido[3,4-h]pyrimido[6,1-f][1]oxa[5,7]diazacyclododecin-9-one], the IC50 with H358 (Homo sapiens, NCI-H358, 120 h) stood at 0.004 µM; in the test on MIA PaCa-2 (setting [1]) it was 0.004 µM. With `C=CC(=O)N1CCN(c2nc(=O)n3c4nc(c(F)cc24)-c2c(ccc(Cl)c2F)OCC(O)C(OCC)c2ccnc(C(C)C)c2-3)[C@@H](C)C1` (stereo partly drawn) [Example 73, (S)-2^4-((S)-4-acryloyl-2-methylpiperazin-1-yl)-3^5-chloro-7-ethoxy-2^6,3^6-difluoro-6-hydroxy-1^2-isopropyl-2^1,2^2-dihydro-4-oxa-2(1,7)-pyrido[2,3-d]pyrimidina-1(3,4)-pyridina-3(1,2)-benzocycloheptane-2^2-one], the half-inhibitory concentration (IC50) in the test with H358 was determined as 0.668 µM.

For the compound `C=CC(=O)N1CCN(c2nc(=O)n3c4nc(c(F)cc24)-c2c(F)cccc2OCC(O)C(OC(=O)C2CC2)c2ccnc(C(C)C)c2-3)[C@@H](C)C1` (stereo partly drawn) [Example 10, 2^4-((S)-4-acryloyl-2-methylpiperazin-1-yl)-2^6,3^6-difluoro-6-hydroxy-1^2-isopropyl-2^2-oxo-2^1,2^2-dihydro-4-oxa-2(1,7)-pyrido[2,3-d]pyrimidina-1(3,4)-pyridina-3(1,2)-benzocycloheptane-7-yl cyclopropanecarboxylate], the IC50 in the test on H358 (Homo sapiens, NCI-H358, 120 h) amounted to 0.005 µM; in the test on MIA PaCa-2 (setting [1]) it was 0.004 µM. Take `C=CC(=O)N1CCN(c2nc(=O)n3c4nc(c(F)cc24)-c2c(F)cccc2OCC(O)C(O)c2ccnc(C(C)C)c2-3)[C@@H](C)C1` (stereo partly drawn) [Example 1-S, (S)-2^4-((S)-4-acryloyl-2-methylpiperazin-1-yl)-2^6,3^6-difluoro-6,7-dihydroxy-1^2-isopropyl-2^1,2^2-dihydro-4-oxa-2(1,7)-pyrido[2,3-d]pyrimidina-1(3,4)-pyridina-3(1,2)-benzocycloheptane-2^2-one]: the results for the half-maximal inhibitory concentration (IC50) with H358 and in the test on MIA PaCa-2 were 0.931 µM and 0.1 µM, respectively. In the case of `C=CC(=O)N1CCN(c2nc(=O)n3c4nc(c(F)cc24)-c2c(F)cccc2OCC(O)C(OC(=O)C(C)C)c2ccnc(C(C)C)c2-3)[C@@H](C)C1` (stereo partly drawn) [Example 9, 2^4-((S)-4-acryloyl-2-methylpiperazin-1-yl)-2^6,3^6-difluoro-6-hydroxy-1^2-isopropyl-2^2-oxo-2^1,2^2-dihydro-4-oxa-2(1,7)-pyrido[2,3-d]pyrimidina-1(3,4)-pyridina-3(1,2)-benzocycloheptane-7-yl isobutyrate], the IC50 in the test on H358 (Homo sapiens, NCI-H358, 120 h) was determined as 0.021 µM; with MIA PaCa-2 (setting [1]) it was 0.013 µM.

Take `C=CC(=O)N1CCN(c2nc(=O)n3c4nc(c(F)cc24)-c2c(F)cccc2OCC(O)C(OCC)c2ccnc(C(C)C)c2-3)[C@@H](C)C1` (stereo partly drawn) [Example 43, (R)-2^4-((S)-4-acryloyl-2-methylpiperazin-1-yl)-7-ethoxy-2^6,3^6-difluoro-6-hydroxy-1^2-isopropyl-2^1,2^2-dihydro-4-oxa-2(1,7)-pyrido[2,3-d]pyrimidina-1(3,4)-pyridina-3(1,2)-benzocycloheptane-2^2-one]: the IC50 came out at 0.005 µM in the test on H358 and 0.006 µM with MIA PaCa-2. As to `C=CC(=O)N1CCN(c2nc(=O)n3c4nc(c(F)cc24)-c2c(ccc(Cl)c2F)OCC(O)C(OCC)c2ccnc(C(C)C)c2-3)[C@@H](C)C1` (stereo partly drawn) [Example 72, (R)-2^4-((S)-4-acryloyl-2-methylpiperazin-1-yl)-3^5-chloro-7-ethoxy-2^6,3^6-difluoro-6-hydroxy-1^2-isopropyl-2^1,2^2-dihydro-4-oxa-2(1,7)-pyrido[2,3-d]pyrimidina-1(3,4)-pyridina-3(1,2)-benzocycloheptane-2^2-one], the figures for the concentration for half-maximal inhibition (IC50) in the test with H358 and in the test with MIA PaCa-2 were 0.007 µM and 0.006 µM, respectively.

As to `C=CC(=O)N1CCN(c2nc(=O)n3c4nc(c(F)cc24)-c2c(F)cccc2OCC(OCC(F)F)C(O)c2ccnc(C(C)C)c2-3)[C@@H](C)C1` (stereo partly drawn) [Example 33, 2^4-((S)-4-acryloyl-2-methylpiperazin-1-yl)-6-(2,2-difluoroethoxy)-2^6,3^6-difluoro-7-hydroxy-1^2-isopropyl-2^1,2^2-dihydro-4-oxa-2(1,7)-pyrido[2,3-d]pyrimidina-1(3,4)-pyridina-3(1,2)-benzocycloheptane-2^2-one], the IC50 in the test on H358 was 0.042 µM; with MIA PaCa-2 it was 0.154 µM.

For the compound `C=CC(=O)N1CCN(c2nc(=O)n3c4nc(c(F)cc24)-c2c(F)cccc2OCC(O)C(=O)c2ccnc(C(C)C)c2-3)[C@@H](C)C1` (stereo partly drawn) [Example 4, 2^4-((S)-4-acryloyl-2-methylpiperazin-1-yl)-2^6,3^6-difluoro-6-hydroxy-1^2-isopropyl-2^1,2^2-dihydro-4-oxa-2(1,7)-pyrido[2,3-d]primidina-1(3,4)-pyridina-3(1,2)-benzocycloheptane-2^2,7-dione], the IC50 with H358 (Homo sapiens, NCI-H358, 120 h) is 0.073 µM; in the test with MIA PaCa-2 (setting [1]), 0.083 µM.

For `C=CC(=O)N1CCN(c2nc(=O)n3c4nc(c(F)cc24)-c2c(F)cccc2OCC(O)C(OCC(F)F)c2ccnc(C(C)C)c2-3)[C@@H](C)C1` (stereo partly drawn) [Example 32, 2^4-((S)-4-acryloyl-2-methylpiperazin-1-yl)-7-(2,2-difluoroethoxy)-2^6,3^6-difluoro-6-hydroxy-1^2-isopropyl-2^1,2^2-dihydro-4-oxa-2(1,7)-pyrido[2,3-d]pyrimidina-1(3,4)-pyridina-3(1,2)-benzocycloheptane-2^2-one], the values for the half-inhibitory concentration (IC50) with H358 and in the test on MIA PaCa-2 were 0.041 µM and 0.069 µM, respectively. Turning to `C=CC(=O)N1C[C@H](C)N(c2nc(=O)n3c4nc(c(F)cc24)-c2c(ccc(Cl)c2F)OCC(O)C(OCC)c2ccnc(C(C)C)c2-3)C[C@H]1C` (stereo partly drawn) [Example 77, (S)-(S)-2^4-((2S,5R)-4-acryloyl-2,5-dimethylpiperazin-1-yl)-3^5-chloro-7-ethoxy-2^6,3^6-difluoro-6-hydroxy-1^2-isopropyl-2^1,2^2-dihydro-4-oxa-2(1,7)-pyrido[2,3-d]pyrimidina-1(3,4)-pyridina-3(1,2)-benzocycloheptane-2^2-one], the half-maximal inhibitory concentration (IC50) with H358 turned out to be 0.523 µM.
